Reference: patent US20020040062A1, “Protein kinase C activators and their use in decreasing expression of cell antigens” (The Trustees of Columbia University, priority 1993, published 2002)
Marks after values point to notes of the source that are not given here.

Legend:
[1] = test system: T47D cells; experiment: 3H-thymidine incorporation (DNA synthesis) in T47D cells; format: cell-based, human; details: 0.1 μg/ml, 72 hr, FIG. 1
Protocol: FIG. 1: Effect of H-7, TPA, MEZ and ADMB on T47D cell growth and DNA synthesis. Cell growth assays are presented in (A). T47D cells were seeded at 1×10^4 cells/35 mm tissue culture plate, the medium was changed with the indicated compounds 24 hr later and cell numbers were determined after an additional 72 hr growth at 37° C. by Coulter Counter. Results are the average of triplicate samples/experimental condition which varied by ≦10%. DNA synthesis assays are presented in (B). T47 D cells were seeded at 1.25×10^4 cells in 0.2 ml of media in 96 microtiter plates. Every 24 hr, cultures received 1 μCi of methyl-^3H-thymidine and 8 hr later cells were harvested and TCA precipitable counts were determined. Results are the average from replicate samples exposed to the indicated compounds for 72 hr. Replicate samples varied by ≦10% and replicate studies varied by ≦15%. Further details can be found in “Detailed Description Of The Invention”.
T47D cells were seeded at 5×10^3 cells/ml in 35 mm tissue culture plates and 24 hr later the medium was changed with the indicated compounds. Seventy-two hr later the cells were resuspended in trysin/versene (0.125%/0.02%, w/w) and counted using a ZM Coulter Counter (Coulter Electronics). For ^3H-thymidine incorporation studies, T47D cells were seeded at 1.25×10^4 cells in 0.2 ml of media in 96 well microtiter plates. Every 24 hr, plates received 1 μCi of methyl-^3H-thymidine (specific activity […]) (ICN Radiochemicals, Irvine, Calif.), cells were harvested 8 hr after the addition of labeled thymidine and TCA precipitable counts were determined using a Packard scintillation counter. Replicate samples varied by ≦10% and replicate studies varied by ≦15%.

[2] = test system: HLA Class II-DRβ antigen mRNA; experiment: Northern blotting, steady-state HLA Class II-DRβ mRNA in T47D cells; format: cell-based, human; details: 72 hr, 500 units/ml IFN-α or IFN-β, 50 units/ml IFN-γ, 0.1 μg/ml TPA, MEZ or ADMB, densitometry
Protocol: FIG. 3: Effect of interferon, ADMB, TPA and MEZ, alone and in combination with H-7, on steady-state mRNA levels of HLA Class I antigens, HLA Class II-DRβ antigen, c-erbB-2, ICAM-1 and GAPDH in T47D human breast carcinoma cells. […] Cultures were also grown in the presence of 0.1 μg/ml of H-7 for 72 hr with and without the additional compounds indicated above. Total cytoplasmic RNA was isolated and processed as described in “Detailed Description Of The Invention.” Control: CON; recombinant human leukocyte interferon-A: IFN-αA; recombinant human fibroblast interferon: IFN-β; recombinant human immune interferon: IFN-γ; ADMB; 3-(N-acetylamino)-5-(N-decyl-N-methylamino)-benzyl alcohol; TPA; 12-0-tetradecanoyl-phorbol-13-acetate; MEZ; mezerein; H-7: (1-(5-isoquinolinesulfonyl)-2-methylpiperazine dihydrochloride.
Steady-state levels of HLA Class I, HLA Class II-DRβ, c-erbB-2 and ICAM-I mRNA in control and treated T47D cells were determined by Northern blotting analysis of total cytoplasmic RNA probed with appropriate ^32P-labeled gene probes as previously described. Northern blots were also probed with a ^32P-labeled glyceraldehyde phosphate dehydrogenase (GAPDH) gene probe to verify equal […] under various experimental conditions. Following hybridization, the filters were washed and exposed for autoradiography.

[3] = test system: c-erbB-2; experiment: FACS analysis of c-erbB-2 surface expression in T47D cells; format: cell-based, human; details: 72 hr; for c-erbB-2 level of upregulation versus untreated control cells (equivalent to 1.0) / Antigenic Expression (MFI) c-erbB-2: 0.1 μg/ml TPA or MEZ; for c-erbB-2 level of upregulation versus untreated control cells (equivalent to 1.0): presence or absence of 0.1 μg/ml H-7; for Antigenic Expression (MFI) c-erbB-2: presence or absence of 0.1 μg/ml H-7, FACStar
Source text: IgG1 murine monoclonal antibody Cu18 and Cu46 recognize two different epitopes of a highly restricted breast carcinoma associated glycoprotein of Mr 225,000 to 250,000 (BCA 225). This TAA is expressed intracytoplasmically and on the membrane of 94% of breast tumors tested and in the T47D human breast carcinoma cell line. BCA 225 is shed into the culture medium by T47D cells and into the sera of breast cancer patients. IgG2a monoclonal antibody L243 (anti HLA Class II-DR) recognizes a monomorphic HLA Class II-DR-α epitope (ATCC M355). Monoclonal antibody CL203.4 [40], which recognizes ICAM-I, was kindly provided by Dr. S. Ferrone, New York Medical College, NY. The c-erbB-2 monoclonal antibody which recognizes the extracellular domain of c-erbB-2 was obtained from Triton Biosciences, Inc., Alamedia, Calif. Monoclonal antibodies Cu18 and Cu46 were used at 0.05 μg/ml and monoclonal antibodies interacting with HLA Class II-DR, ICAM-1 and c-erbB-2 were used at 10 μg/ml. For each experiment, isotype matched control backgrounds (IgG for Cu18, Cu46 and ICAM-1, IgG2a for HLA Class Ii and IgG2b for c-erbB-2) were subtracted from the experimental results. Background from antimouse IgG FITC antibody was also subtracted from experimental results. Applicants never observed backgrounds higher than 2% of total cells for isotypic mouse IgG or higher than 5% for antimouse IgG FITC.
T47D cells treated with the various compounds were analyzed by flow cytometry using appropriate monoclonal antibody concentrations as described previously. Briefly, 1×10^5 cells were incubated with the test antibody for 30 min at 4° C., washed 3× with PBS and incubated with a goat a mouse F (ab)2 FITC conjugated test antibody at a 1:40 dilution for 30 min at 4° C. Cells were then washed 3× with PBS and analyzed on a FACStar (Beckon Dickinson, Mountain View, Calif.) or a Coulter Epics IV FACS (Coulter, Hialeah, Fla.). Results are expressed as mean fluorescence intensity (MFI) units which were determined as described previously. MFI=(mean channel fluorescence in fluorescence positive antibody-binding cells×% of fluorescence positive antibody-binding cells)−(mean channel fluorescence in unstained cells×% of fluorescence positive cells in the unstained population). All studies were performed a minimum of three or four times with duplicate samples in each experiment. Replicate samples within individual experiments varied by ≦10% and variation between experiments were generally ≦20%.

[4] = test system: HLA-DR; experiment: FACS analysis of HLA-DR (MoAb L243) in CBS human colon carcinoma cells; format: cell-based; details: 96 hours
Protocol: (§1) Cells were plated in 10 cm plates, media was changed 24 hours later with no addition (control) or addition of the indicated compounds and cells were incubated at 37° C. for 96 hours. Cells were resuspended using 10× EDTA and antigen expression was determined as described (Leon, Mesa-Tejada, Gutierrez, Estabrook, Breiner, Schlom & Fisher: Anticancer Res. 9:1639-1648, 1989; Leon, Gutierrez, Jiang, Estabrook, Waxman & Fisher: Cancer Immuno. Immunother. 35:315-324 1992).

[5] = test system: MoAb K56; experiment: FACS analysis of MoAb K56 binding in CBS human colon carcinoma cells; format: cell-based; details: 96 hours
Protocol: as §1

Molecule	effect on DNA synthesis (3H-thymidine incorporation) [1]	increase in HLA Class II-DR antigen mRNA levels [2]	c-erbB-2 level of upregulation versus untreated control cells (equivalent to 1.0) [3]	Antigenic Expression (MFI) c-erbB-2 [3]	Monoclonal Antibody Binding (MFI) MoAb L243 (HLA-DR) ([4]; MEZ 1100 ng/ml, IFN-γ 100 U/ml)	Monoclonal Antibody Binding (MFI) MoAb K56 ([5]; MEZ 1100 ng/ml, IFN-γ 100 U/ml)	further results
CCCCCCCCCCCCCC(=O)O[C@@H]1[C@@H](C)[C@@]2(O)[C@@H](C=C(CO)C[C@]3(O)C(=O)C(C)=C[C@@H]23)[C@H]2C(C)(C)[C@]12OC(C)=O [TPA, 12-0-tetradecanoyl-phorbol-13-acetate]	suppressed to the greatest degree	did not increase	(2.3)	16,100 MFI	–	–	–
C=C(C)[C@@]12O[C@@]3(c4ccccc4)O[C@@H]1[C@@H]1[C@@H]4O[C@]4(CO)[C@@H](O)[C@]4(O)C(=O)C(C)=C[C@H]4[C@@]1(O3)[C@H](C)[C@H]2OC(=O)/C=C/C=C/c1ccccc1 [MEZ, mezerein]	only marginally altered	1.2 fold	(2.6)	18,385 MFI	9726* MFI	3002* MFI	efficacy of upregulation of c-erbB-2 (fold-change in MFI, FIG. 2) ([3]; 0.1 μg/ml of ADMB, TPA or MEZ): most effective PKC activator tested
CC1CNCCN1S(=O)(=O)c1cccc2cnccc12.Cl.Cl (centres unmarked) [H-7, 1-(5-isoquinolinesulfonyl)-2-methylpiperazine dihydrochloride]	–	–	(1.0)	7,045 MFI	–	–	–
CCCCCCCCCCN(C)c1cc(CO)cc(NC(C)=O)c1 [ADMB, 3-(N-acetylamino)-5-(N-decyl-N-methylamino)-benzyl alcohol]	only marginally altered	did not increase	–	–	–	–	Monoclonal Antibody Binding (MFI) MoAb L243 (HLA-DR) ([4]; ADMB 0.01 μg/ml): 4112 MFI; Monoclonal Antibody Binding (MFI) MoAb L243 (HLA-DR) ([4]; ADMB 0.1 μg/ml): 3328 MFI; Monoclonal Antibody Binding (MFI) MoAb L243 (HLA-DR) ([4]; ADMB 1.0): 6870* MFI; Monoclonal Antibody Binding (MFI) MoAb K56 ([5]; ADMB 0.01 μg/ml): 2126 MFI; Monoclonal Antibody Binding (MFI) MoAb K56 ([5]; ADMB 0.1 μg/ml): 1715 MFI; Monoclonal Antibody Binding (MFI) MoAb K56 ([5]; ADMB 1.0 g/ml): 2420 MFI
IFN-β: recombinant human fibroblast interferon with a serine substituted for a cysteine at position 17 (protein, UniProt P01574 22-187, looked up, variant C17S) Interferon beta: MSYNLLGFLQRSSNFQSQKLLWQLNGRLEYCLKDRMNFDIPEEIKQLQQFQKEDAALTIYEMLQNIFAIFRQDSSSTGWNETIVENLLANVYHQINHLKTVLEEKLEKEDFTRGKLMSSLHLKRYYGRILHYLKAKEYSHCAWTIVRVEILRNFYFINRLTGYLRN	–	1.2 fold	–	–	–	–	–
IFN-γ: recombinant human immune interferon produced in Escherichia coli (protein, UniProt P01579 24-161, looked up) Interferon gamma: QDPYVKEAENLKKYFNAGHSDVADNGTLFLGILKNWKEESDRKIMQSQIVSFYFKLFKNFKDDQSIQKSVETIKEDMNVKFFNSNKKKRDDFEKLTNYSVTDLNVQRKAIHELIQVMAELSPAAKTGKRKRSQMLFRG	–	1.25 fold	–	–	14972* MFI	3126* MFI	activity in increasing Class II HLA-DR antigens relative to ADMB [4]: approximately 2 ×
